{
  "source": "paper PMC11790914",
  "about": "“Chemogenomics for steroid hormone receptors (NR3)” (Communications Chemistry, 2025)",
  "key": {"[1]": {"test_system": "NR3B3 (ERRγ)", "details": "(lit.); ref Supplementary Table 1; read-out: Potency [nM] EC50, NR3B3 (ERRγ); cited from earlier work"}, "[2]": {"test_system": "NR3C2 (MR)", "details": "rem. act.; cited from earlier work"}, "[3]": {"test_system": "NR5A2 (LRH1)", "assay": "Gal4 hybrid reporter gene assay LRH1", "type": "cell-based, human", "details": "1 µM; n=3; vs. DMSO ctrl", "description": "Reference ligands are listed in the methods section.\nHEK293T cells (ATCC, Manassas, Virgina, USA; #CRL-3216) were cultured to a maximal confluence of 70–80% in DMEM, high glucose, supplemented with 10% FCS, sodium pyruvate (1 mM), penicillin (100 U/mL), and streptomycin (100 μg/mL) at 37 °C and 5% CO2 (v/v), and seeded in clear 96-well plates (4 × 10^4 cells per well). After 20–24 h, medium was changed to Opti-MEM without supplements and the cells were transiently transfected using Lipofectamine™ LTX/Plus™ Reagents (Invitrogen, Carlsbad, California, USA; #15338100) according to the manufacturer’s protocol with pFR-Luc (reporter gene; Stratagene, Agilent Technologies, Santa Clara, California, USA; #219050), pRL-SV40 (control gene for normalization of transfection efficiency and cell growth; Promega, Fitchburg, Wisconsin, USA; #E2231) and one pFA-CMV-hNR-LBD clone coding for the hinge region and ligand binding domain (LBD) of the human NR of interest. […] Firefly (reporter) and renilla (control) luminescence were measured after 14–16 h incubation using the Dual-Glo® Luciferase Assay System (Promega, Fitchburg, Wisconsin, USA; #E2980) according to manufacturer’s protocol on a Tecan Spark® 10M multimode microplate reader (Tecan Group AG, Männedorf, Switzerland). To obtain relative light units (RLU) firefly luminescence was divided by renilla luminescence and multiplied by 1000. […]"}},
  "data": [
    {"smiles": "CCN(CC)c1ccc(/C=N/NC(=O)c2ccc(O)cc2)cc1", "note": "[DY131]", "values": [
      {"measurement": "EC50", "setting": "[1]", "result": 130, "unit": "nM"}
    ]},
    {"smiles": "CC#C[C@]1(O)CC[C@H]2[C@@H]3CCC4=CC(=O)CCC4=C3[C@@H](c3ccc(N(C)C)cc3)C[C@@]21C", "note": "[Mifepristone]", "values": [
      {"measurement": "rel. activity from literature, NR3C2 (MR): % rem. act.", "setting": "[2]", "result": 4, "unit": "%"}
    ]},
    {"smiles": "COc1cc(/C=C(\\C#N)C(=O)Nc2nnc(C(F)(F)F)s2)ccc1OCc1ccc(C(F)(F)F)cc1C(F)(F)F", "note": "[XCT790]", "values": [
      {"measurement": "Activity on NR targets outside NR3 family [mean log10(fold reporter gene activity)] NR5A2 (LRH1)", "setting": "[3]", "result": "0.20 log10(fold reporter gene activity)"}
    ]}
  ]
}
